The target of test [1] is Tyrosine-protein kinase Yes (Homo sapiens, UniProt P07947).
In test [2] the target is T1, Serine/threonine-protein kinase TAO3 (Homo sapiens, UniProt Q9H2K8).
T1 sequence (Q9H2K8 whole entry): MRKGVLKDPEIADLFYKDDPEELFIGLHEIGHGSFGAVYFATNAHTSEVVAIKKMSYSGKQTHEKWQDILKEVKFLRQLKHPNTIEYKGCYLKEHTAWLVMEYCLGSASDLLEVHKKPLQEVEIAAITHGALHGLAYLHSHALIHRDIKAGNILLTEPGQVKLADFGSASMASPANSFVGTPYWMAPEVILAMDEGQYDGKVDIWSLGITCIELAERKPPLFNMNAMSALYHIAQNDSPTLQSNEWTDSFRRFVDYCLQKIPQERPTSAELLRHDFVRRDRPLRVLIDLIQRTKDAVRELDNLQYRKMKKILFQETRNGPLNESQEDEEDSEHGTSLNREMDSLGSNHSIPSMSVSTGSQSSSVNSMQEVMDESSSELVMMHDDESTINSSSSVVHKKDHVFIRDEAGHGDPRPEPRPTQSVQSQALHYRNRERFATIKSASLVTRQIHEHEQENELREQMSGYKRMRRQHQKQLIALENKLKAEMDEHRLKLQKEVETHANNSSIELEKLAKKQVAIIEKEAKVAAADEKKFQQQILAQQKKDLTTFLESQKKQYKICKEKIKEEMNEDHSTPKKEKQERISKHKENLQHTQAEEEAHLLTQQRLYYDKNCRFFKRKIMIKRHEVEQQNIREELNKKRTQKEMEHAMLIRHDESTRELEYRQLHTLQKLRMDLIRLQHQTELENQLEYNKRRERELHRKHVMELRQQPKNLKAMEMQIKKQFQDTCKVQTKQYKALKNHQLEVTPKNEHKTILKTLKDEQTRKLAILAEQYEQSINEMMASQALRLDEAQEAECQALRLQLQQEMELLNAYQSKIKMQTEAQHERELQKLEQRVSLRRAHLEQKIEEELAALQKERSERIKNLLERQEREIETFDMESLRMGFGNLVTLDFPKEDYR

Test [3] has as its target T2, Aurora kinase A (Homo sapiens, UniProt O14965).
T2 sequence (O14965 whole entry): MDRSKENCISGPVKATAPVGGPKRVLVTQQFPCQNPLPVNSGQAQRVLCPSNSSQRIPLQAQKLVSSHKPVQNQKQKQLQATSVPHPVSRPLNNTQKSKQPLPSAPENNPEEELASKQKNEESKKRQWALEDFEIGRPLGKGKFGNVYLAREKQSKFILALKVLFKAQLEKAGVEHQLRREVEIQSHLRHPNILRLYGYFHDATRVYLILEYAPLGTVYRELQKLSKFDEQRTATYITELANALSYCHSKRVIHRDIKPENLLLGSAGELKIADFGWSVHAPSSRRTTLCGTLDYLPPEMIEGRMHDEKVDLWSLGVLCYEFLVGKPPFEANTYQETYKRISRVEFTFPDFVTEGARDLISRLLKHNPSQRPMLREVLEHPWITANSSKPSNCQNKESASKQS

Test [4] has as its target T3, ADP/ATP translocase 3 (Homo sapiens, UniProt P12236).
T3 sequence (P12236 whole entry): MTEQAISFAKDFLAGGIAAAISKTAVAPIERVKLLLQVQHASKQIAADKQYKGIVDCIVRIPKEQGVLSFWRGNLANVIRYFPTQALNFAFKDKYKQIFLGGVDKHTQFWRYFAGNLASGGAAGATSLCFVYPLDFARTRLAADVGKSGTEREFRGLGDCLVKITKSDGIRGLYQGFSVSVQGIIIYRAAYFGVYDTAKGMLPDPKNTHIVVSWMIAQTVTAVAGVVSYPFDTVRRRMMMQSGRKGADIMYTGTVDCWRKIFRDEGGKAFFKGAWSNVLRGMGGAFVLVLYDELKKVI

Test [5] has as its target T4, ATP-dependent 6-phosphofructokinase, platelet type (Homo sapiens, UniProt Q01813).
T4 sequence (Q01813 whole entry): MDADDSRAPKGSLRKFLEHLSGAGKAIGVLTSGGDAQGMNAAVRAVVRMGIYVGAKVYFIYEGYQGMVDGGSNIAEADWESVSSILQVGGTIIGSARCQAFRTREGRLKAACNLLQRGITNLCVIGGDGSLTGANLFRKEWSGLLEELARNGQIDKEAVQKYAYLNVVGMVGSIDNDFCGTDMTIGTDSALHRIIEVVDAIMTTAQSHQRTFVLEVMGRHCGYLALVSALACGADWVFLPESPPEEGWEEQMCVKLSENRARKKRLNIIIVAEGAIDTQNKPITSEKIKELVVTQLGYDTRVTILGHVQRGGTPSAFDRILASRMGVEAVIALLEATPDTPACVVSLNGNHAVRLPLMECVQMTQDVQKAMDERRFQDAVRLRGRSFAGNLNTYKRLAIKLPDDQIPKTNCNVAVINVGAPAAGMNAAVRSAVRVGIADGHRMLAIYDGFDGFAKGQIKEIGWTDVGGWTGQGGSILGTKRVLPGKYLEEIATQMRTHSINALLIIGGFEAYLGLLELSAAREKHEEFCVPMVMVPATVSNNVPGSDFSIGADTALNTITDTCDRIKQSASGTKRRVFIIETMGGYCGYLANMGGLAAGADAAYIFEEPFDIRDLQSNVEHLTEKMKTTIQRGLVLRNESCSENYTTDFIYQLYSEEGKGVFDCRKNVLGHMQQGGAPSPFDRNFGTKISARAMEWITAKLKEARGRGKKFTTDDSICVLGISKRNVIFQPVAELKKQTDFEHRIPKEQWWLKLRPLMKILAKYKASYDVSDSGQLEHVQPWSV

For test [6], the target named is T5, Phosphorylase b kinase gamma catalytic chain, liver/testis isoform (Homo sapiens, UniProt P15735).
T5 sequence (P15735 whole entry): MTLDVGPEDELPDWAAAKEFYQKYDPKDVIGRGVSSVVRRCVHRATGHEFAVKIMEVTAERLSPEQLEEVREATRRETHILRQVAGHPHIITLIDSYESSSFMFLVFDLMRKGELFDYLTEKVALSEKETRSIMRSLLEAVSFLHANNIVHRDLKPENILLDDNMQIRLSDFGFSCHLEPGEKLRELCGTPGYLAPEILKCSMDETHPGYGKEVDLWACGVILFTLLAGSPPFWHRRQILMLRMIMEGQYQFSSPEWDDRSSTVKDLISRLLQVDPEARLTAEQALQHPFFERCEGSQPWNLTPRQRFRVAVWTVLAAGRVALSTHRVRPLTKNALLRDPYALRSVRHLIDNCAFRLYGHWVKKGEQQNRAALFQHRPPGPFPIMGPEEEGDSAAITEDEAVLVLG

Test [7] concerns the target Cyclin-dependent kinase 1 (Homo sapiens, UniProt P06493).
The target in test [8] is Cyclin-dependent kinase 12 (Homo sapiens, UniProt Q9NYV4).
Chain of Cyclin-dependent kinase 12 (Q9NYV4 whole entry): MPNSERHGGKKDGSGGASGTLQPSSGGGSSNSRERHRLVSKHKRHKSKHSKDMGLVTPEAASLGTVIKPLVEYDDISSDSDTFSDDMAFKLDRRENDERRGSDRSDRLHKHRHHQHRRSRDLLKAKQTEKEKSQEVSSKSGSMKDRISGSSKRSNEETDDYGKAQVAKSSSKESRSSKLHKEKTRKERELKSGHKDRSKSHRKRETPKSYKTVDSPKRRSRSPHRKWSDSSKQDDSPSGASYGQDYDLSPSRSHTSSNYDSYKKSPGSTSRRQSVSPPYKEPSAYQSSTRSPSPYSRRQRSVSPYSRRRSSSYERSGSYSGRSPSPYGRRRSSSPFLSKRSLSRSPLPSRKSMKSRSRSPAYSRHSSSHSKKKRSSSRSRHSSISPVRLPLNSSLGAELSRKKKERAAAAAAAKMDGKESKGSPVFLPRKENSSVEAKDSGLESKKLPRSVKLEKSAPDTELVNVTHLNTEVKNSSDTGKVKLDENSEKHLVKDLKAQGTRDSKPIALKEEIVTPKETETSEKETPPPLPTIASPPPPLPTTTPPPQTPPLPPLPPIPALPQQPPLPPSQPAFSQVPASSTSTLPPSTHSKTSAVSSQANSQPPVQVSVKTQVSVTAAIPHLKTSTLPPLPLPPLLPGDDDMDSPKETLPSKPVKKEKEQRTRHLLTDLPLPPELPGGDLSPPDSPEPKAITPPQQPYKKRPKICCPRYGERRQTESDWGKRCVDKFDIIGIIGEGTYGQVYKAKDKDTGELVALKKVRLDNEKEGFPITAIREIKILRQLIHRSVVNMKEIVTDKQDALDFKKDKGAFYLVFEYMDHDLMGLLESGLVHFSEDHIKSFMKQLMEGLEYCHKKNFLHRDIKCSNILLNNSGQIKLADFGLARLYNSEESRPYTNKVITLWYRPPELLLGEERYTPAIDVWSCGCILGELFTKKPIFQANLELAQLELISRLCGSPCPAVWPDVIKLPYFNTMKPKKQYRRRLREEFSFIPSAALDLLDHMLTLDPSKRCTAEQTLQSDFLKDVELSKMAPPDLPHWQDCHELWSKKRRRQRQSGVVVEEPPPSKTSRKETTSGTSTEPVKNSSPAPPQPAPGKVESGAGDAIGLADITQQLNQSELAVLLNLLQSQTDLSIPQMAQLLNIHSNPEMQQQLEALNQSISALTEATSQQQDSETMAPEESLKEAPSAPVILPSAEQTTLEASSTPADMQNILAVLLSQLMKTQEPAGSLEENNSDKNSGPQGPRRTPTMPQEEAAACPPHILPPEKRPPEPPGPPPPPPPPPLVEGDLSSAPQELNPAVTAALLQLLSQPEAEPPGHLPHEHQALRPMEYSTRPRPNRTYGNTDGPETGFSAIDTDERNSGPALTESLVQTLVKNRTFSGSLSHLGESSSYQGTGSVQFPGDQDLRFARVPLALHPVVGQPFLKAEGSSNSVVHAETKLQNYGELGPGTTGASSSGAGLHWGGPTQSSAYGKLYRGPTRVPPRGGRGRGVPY

SMILES strings stand for the structures. Activity calls are given as the source filed them. Rule as the data show it, for most assays here: actives have a measured Kd and inactives only a lower limit.
Also: in the data inactive means no Kd found up to 30 µM.

Chain of Tyrosine-protein kinase Yes (P07947 whole entry): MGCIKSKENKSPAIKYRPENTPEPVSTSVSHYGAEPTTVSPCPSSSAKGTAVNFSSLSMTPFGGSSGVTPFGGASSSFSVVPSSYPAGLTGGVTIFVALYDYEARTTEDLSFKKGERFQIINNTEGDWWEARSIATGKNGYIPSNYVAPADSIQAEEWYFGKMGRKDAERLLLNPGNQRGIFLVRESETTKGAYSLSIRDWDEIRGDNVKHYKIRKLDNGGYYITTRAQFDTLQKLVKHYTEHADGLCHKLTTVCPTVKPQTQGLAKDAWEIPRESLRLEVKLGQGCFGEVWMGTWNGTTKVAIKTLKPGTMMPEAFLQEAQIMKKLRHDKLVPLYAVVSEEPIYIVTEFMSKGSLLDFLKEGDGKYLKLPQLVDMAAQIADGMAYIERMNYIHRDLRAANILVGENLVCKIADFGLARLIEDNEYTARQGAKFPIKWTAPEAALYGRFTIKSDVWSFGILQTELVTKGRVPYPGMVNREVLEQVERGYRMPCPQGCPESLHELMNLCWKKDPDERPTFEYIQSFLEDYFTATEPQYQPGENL
Chain of Cyclin-dependent kinase 1 (P06493 whole entry): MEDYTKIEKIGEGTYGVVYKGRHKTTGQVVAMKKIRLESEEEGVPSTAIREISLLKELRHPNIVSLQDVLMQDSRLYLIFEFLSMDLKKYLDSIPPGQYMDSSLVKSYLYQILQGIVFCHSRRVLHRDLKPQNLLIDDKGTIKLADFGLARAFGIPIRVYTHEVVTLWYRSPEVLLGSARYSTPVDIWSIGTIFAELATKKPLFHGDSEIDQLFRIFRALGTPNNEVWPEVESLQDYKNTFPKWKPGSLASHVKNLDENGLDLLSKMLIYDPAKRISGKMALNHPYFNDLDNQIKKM

In general, Kd refers to the equilibrium constant for the complex coming apart. With `C[C@@H]1COC(Nc2ccc3ncnc(Nc4ccc(OCc5nccs5)c(Cl)c4)c3c2)=N1` [VARLITINIB], the Kd in test [1] is 0.321 µM (active); in test [2], > 30 µM (inactive); in test [3], > 30 µM (inactive); in test [4], > 30 µM (inactive); in test [5], > 30 µM (inactive); in test [6], > 30 µM (inactive). The Kd in test [7] and in test [8] was > 30 µM (inactive) in each case.
`NC(=O)c1ccc(N(C(N)=O)c2c(F)cccc2F)nc1-c1ccc(F)cc1F` [VX-702]: the Kd in test [1], in test [2], in test [3], in test [4], in test [5] and in test [6] was > 30 µM (inactive) throughout. The Kd in test [7] and in test [8] was > 30 µM (inactive) each time.
For the compound `C=CC(=O)Nc1cc(Nc2nccc(-c3cn(C)c4ccccc34)n2)c(OC)cc1N(C)CCN(C)C` [OSIMERTINIB], the Kd in test [1], in test [2], in test [3], in test [4], in test [5] and in test [6] was > 30 µM (inactive) in each case. Also, the Kd in test [7] and in test [8] was > 30 µM (inactive) throughout.
For the compound `COCCN1CCN(Cc2ccc(-c3n[nH]c4c3C(=O)c3c(NC(=O)NN5CCOCC5)cccc3-4)cc2)CC1` [RGB-286638], the Kd in test [1], in test [2], in test [3], in test [4], in test [5] and in test [6] was > 30 µM (inactive) each time. In addition, the figures for the Kd in test [7] and in test [8] were 1.34 µM (active) and 0.947 µM (active), respectively.
On to `COc1cccc(Nc2ncnn3ccc(CN4CC[C@@H](N)[C@H](O)C4)c23)c1` [BMS-690514], for which the Kd in test [1] is 1.03 µM (active); in test [2], > 30 µM (inactive); in test [3] it was > 30 µM (inactive); in test [4], > 30 µM (inactive); in test [5] it was > 30 µM (inactive); in test [6], 4.62 µM (active). For the same compound, the Kd in test [7] and in test [8] was > 30 µM (inactive) in each case.
Turning to `COc1cc(Nc2ncc(F)c(Nc3ccc4c(n3)N(COP(=O)(O)O)C(=O)C(C)(C)O4)n2)cc(OC)c1OC` [FOSTAMATINIB], the Kd in test [1] is > 30 µM (inactive); in test [2], > 30 µM (inactive); in test [3] it was 0.3 µM (active); in test [4] it was > 30 µM (inactive); in test [5], > 30 µM (inactive); in test [6] it was > 30 µM (inactive). Besides, the Kd in test [7] and in test [8] was > 30 µM (inactive) throughout.
For `C#Cc1cccc(Nc2ncnc3cc4c(cc23)OCCOCCOCCO4)c1` [ICOTINIB], the Kd in test [1], in test [2], in test [3], in test [4], in test [5] and in test [6] was > 30 µM (inactive) in each case. Further, the Kd in test [7] and in test [8] was > 30 µM (inactive) in each case.
`C=CCn1c(=O)c2cnc(Nc3ccc(N4CCN(C)CC4)cc3)nc2n1-c1cccc(C(C)(C)O)n1` [ADAVOSERTIB]: the Kd in test [1], in test [2], in test [3], in test [4], in test [5] and in test [6] was > 30 µM (inactive) each time. Besides, the Kd in test [7] and in test [8] was > 30 µM (inactive) in each case.
For `CCOc1ccn(-c2ccc(F)cc2)c(=O)c1C(=O)Nc1ccc(Oc2ccnc(N)c2Cl)c(F)c1` [BMS-777607], the Kd in test [1], in test [2], in test [3], in test [4], in test [5] and in test [6] was > 30 µM (inactive) throughout. The Kd in test [7] and in test [8] was > 30 µM (inactive) throughout.
Take `COc1cc(F)c(F)c(Nc2ccc(I)cc2F)c1NS(=O)(=O)C1(C[C@H](O)CO)CC1` [REFAMETINIB]: the Kd in test [1], in test [2], in test [3], in test [4], in test [5] and in test [6] was > 30 µM (inactive) in each case. The Kd in test [7] and in test [8] was > 30 µM (inactive) throughout.
Turning to `COc1cc2ncnc3c2cc1OCCCCCN(C)Cc1ccc(Br)cc1N3` [JNJ-26483327], the Kd in test [1], in test [2], in test [3], in test [4], in test [5] and in test [6] was > 30 µM (inactive) each time. Besides, the Kd in test [7] and in test [8] was > 30 µM (inactive) each time.
Turning to `C=CC(=O)Nc1cccc(Nc2nc(Nc3ccc(N4CCN(C(C)=O)CC4)cc3OC)ncc2C(F)(F)F)c1` [ROCILETINIB], the Kd in test [1], in test [2], in test [3], in test [4], in test [5] and in test [6] was > 30 µM (inactive) throughout. Besides, the Kd in test [7] and in test [8] was > 30 µM (inactive) each time.

For the origin of these results see ChEMBL document CHEMBL3991601, “The target landscape of clinical kinase drugs” (Science, 2017).
